Article PMC9866752 (Life, 2023)

Assays:
human Frataxin (FXN) = molecular target: T1, human Frataxin (FXN) (Homo sapiens, UniProt Q16595); experiment: NMR 1H-15N SOFAST-HMQC titration, chemical shift perturbation, Hill fit; format: binding
T1 construct: D91-A210, N-terminal 6xHis-GST tag cut with thrombin; E. coli BL21; 15N-labelled
T1 sequence (Q16595 91-210): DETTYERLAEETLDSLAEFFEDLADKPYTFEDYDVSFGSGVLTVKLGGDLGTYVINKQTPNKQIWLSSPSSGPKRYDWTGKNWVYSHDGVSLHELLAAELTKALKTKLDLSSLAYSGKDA

[1] = molecular target: the molecule itself; experiment: SEC; Sd200/16/600 gel filtration column, last step of the purification; buffer with 50 mM MOPS-Tris pH 8.0, 100 mM KCl, 1% sodium cholate, 10% glycerol, 100 uM TCEP

C=CC1=C(C)c2cc3[nH]c(cc4nc(cc5[nH]c(cc1n2)c(C)c5CCC(=O)O)C(CCC(=O)O)=C4C)c(C)c3C=C [Protoporphyrin IX]
EC50 (human Frataxin (FXN)): 140 µM

B1: human ferrochelatase (residues R65 to L423) (enzyme, UniProt P22830 65-423, looked up)
chain: RKPKTGILMLNMGGPETLGDVHDFLLRLFLDRDLMTLPIQNKLAPFIAKRRTPKIQEQYRRIGGGSPIKIWTSKQGEGMVKLLDELSPNTAPHKYYIGFRYVHPLTEEAIEEMERDGLERAIAFTQYPQYSCSTTGSSLNAIYRYYNQVGRKPTMKWSTIDRWPTHHLLIQCFADHILKELDHFPLEKRSEVVILFSAHSLPMSVVNRGDPYPQEVSATVQKVMERLEYCNPYRLVWQSKVGPMPWLGPQTDESIKGLCERGRKNILLVPIAFTSDHIETLYELDIEYSQVLAKECGVENIRRAESLNGNPLFSKALADLVHSHIQSNELCSKQLTLSCPLCVNPVCRETKSFFTSQQL
notes: ferrochelatase, human, residues R65 to L423; Eluted as a homodimer (88 kDa); The tag is inferred; no cleavage is described; also called FCH; FECH; source: recombinant expression from pET28a in Luria-Bertani media, purified (cobalt HisTrap, gel filtration)
stoichiometry N [1]: 2
